Source: US8658698B2, “Insecticidal compounds” (Syngenta Crop Protection, LLC, priority 2008, dated 2014)

Tests used:
Format in all cases: in vivo
[1] = system: Heliothis virescens (Tobacco Budworm); experiment: Heliothis virescens egg test on artificial diet; settings: same protocol, 200 ppm (18 ppm in well), 4 days
Experimental: (§1) This Example illustrates the pesticidal/insecticidal properties of compounds of formula (I). The tests were performed as follows:
(§2) Cotton leaf discs were placed on agar in a 24-well microtiter plate and sprayed with test solutions at an application rate of 200 ppm. After drying, the leaf discs were infested with 5 L1 larvae. The samples were checked for mortality, feeding behavior, and growth regulation 3 days after treatment (DAT). The following compounds gave at least 80% control of Spodoptera littoralis: A2, A6, A8, A9, A10, A11, A13, A15, A19, A20, A22, A25, A27, A29, A31, A33, A35, A41, A50, A55, A60, A65, A73, A88, A92, and A94. Heliothis virescens (Tobacco Budworm): Eggs (0-24 h old) were placed in 24-well microtiter plate on artificial diet and treated with test solutions at an application rate of 200 ppm (concentration in well 18 ppm) by pipetting. After an incubation period of 4 days, samples were checked for egg mortality, larval mortality and growth regulation. The following compounds gave at least 80% control of Heliothis virescens: A2, A3, A4, A5, A6, A7, A9, A10, A11, A13, A15, A19, A20, A22, A25, A26, A27, A28, A29, A31, A32, A33, A35, A38, A40, A41, A43, A46, A55, A59, A60, A65, A69, A70, A71, A73, A74, A75, A77, A79, A80, A82, A86, A88, A89, A90, A92, A94, A96, A98, and A100. Plutella xylostella (Diamond Back Moth): A 24-well microtiter plate (MTP) with artificial diet was treated with test solutions at an application rate of 200 ppm (concentration in well 18 ppm) by pipetting. After drying, the MTP's were infested with L2 larvae (7-12 per well). After an incubation period of 6 days, samples were checked for larval mortality and growth regulation. The following compounds gave at least 80% control of Plutella xylostella: A3, A4, A5, A6, A7, A8, A10, A15, A16, A18, A19, A20, A22, A25, A26, A27, A28, A29, A31, A32, A33, A35, A38, A40, A55, A69, A71, A73, A74, A75, A76, A77, A78, A80, A82, A86, A87, A88, A89, A92, A94, A96, A97, A98, and A99. Diabrotica balteata (Corn Root Worm): A 24-well microtiter plate (MTP) with artificial diet was treated with test solutions at an application rate of 200 ppm (concentration in well 18 ppm) by pipetting. After drying, the MTP's were infested with larvae (L2) (6-10 per well). After an incubation period of 5 days, samples were checked for larval mortality, and growth regulation. The following compounds gave at least 80% control of Diabrotica balteata: A5, A6, A7, A14, A15, A18, A24, A35, A53, A55, A70, A71, A75, A79, A84, A85, A88, A92, A93, A95, A96, A97, A98, A99, A100, A101, A102, A103, and A104. Myzus persicae (Green Peach Aphid): Each well of a 24-well microtiter plate is filled with 0.6 ml 30% sucrose solution, containing 12.5 ppm of the test compounds. The wells are covered with streched parafilm and infested with a mixed population of Myzus persicae. After an incubation period of 6 days, samples are checked for mortality (feeding activity). The following compounds gave at least 80% control of Myzus persicae: A4, A6, A10, A11, A15, A19, A20, A24, A27, A29, A33, A34, A36, A37, A39, A40, A41, A42, A43, A44, A45, A46, A47, A48, A49, A55, A60, and A82. Tetranychus urticae (Two-Spotted Spider Mite): Bean leaf discs on agar in 24-well microtiter plates were sprayed with test solutions at an application rate of 200 ppm. After drying, the leaf discs are infested with mite populations of mixed ages. 8 days later, discs are checked for egg mortality, larval mortality, and adult mortality. The following compounds gave at least 80% control of Tetranychus urticae: A6, A11, A15, A19, A20, A22, A26, A35, A58, and A64.

[2] = system: Diabrotica balteata (Corn Root Worm); experiment: Diabrotica balteata larvae test on artificial diet; settings: same protocol, 200 ppm (18 ppm in well), 5 days
Experimental: as §1, §2

[3] = system: Plutella xylostella (Diamond Back Moth); experiment: Plutella xylostella larvae test on artificial diet; settings: same protocol, 200 ppm (18 ppm in well), 6 days
Experimental: as §1, §2

[4] = system: Myzus persicae (Green Peach Aphid); experiment: Myzus persicae sucrose solution feeding test; settings: same protocol, 12.5 ppm, 6 days
Experimental: as §1, §2

[5] = system: Tetranychus urticae (Two-Spotted Spider Mite); experiment: Tetranychus urticae bean leaf disc spray test; settings: same protocol, 200 ppm, 8 days
Experimental: as §1, §2

[6] = system: Spodoptera littoralis (Egyptian Cotton Leafworm); experiment: Spodoptera littoralis cotton leaf disc spray test; settings: same protocol, 200 ppm, 3 DAT
Experimental: as §1
Spodoptera littoralis (Egyptian Cotton Leafworm)
as §2

Measured: effect on mortality, feeding behavior, or growth regulation

CCCCNC(=O)c1ccc(C(=O)Nc2c(C)cc(C(F)(C(F)(F)F)C(F)(F)F)cc2C)cc1C [A1, N-1-butyl-N-4-[2,6-dimethyl-4-(1,2,2,2-tetrafluoro-1-trifluoro-methyl-ethyl)-phenyl]-2-methyl-terephthalamide]
no or little effect: all assays above

CCOC(=O)C1CC=CCC1NC(=O)c1ccc(C(=O)Nc2c(C)cc(C(F)(C(F)(F)F)C(F)(F)C(F)(F)F)cc2CC)cc1C (stereo not drawn) [A12]
no or little effect: all assays above

CCc1cc(C(F)(C(F)(F)F)C(F)(F)C(F)(F)F)cc(C)c1NC(=O)c1ccc(C(=O)NC(C)COC)c(C)c1 (stereo not drawn) [A17]
no or little effect: all assays above

CCc1cc(C(F)(C(F)(F)F)C(F)(F)C(F)(F)F)cc(C)c1NC(=O)c1ccc(C(=O)NC2CCCCC2C)c(C)c1 (stereo not drawn) [A21]
no or little effect: all assays above

CCc1cc(C(F)(C(F)(F)F)C(F)(F)C(F)(F)F)cc(C)c1NC(=O)c1ccc(C(=O)NCCCN2CCCC2)c(C)c1 (stereo not drawn) [A23]
no or little effect: all assays above

CCc1cc(C(F)(C(F)(F)F)C(F)(F)C(F)(F)F)cc(C)c1NC(=O)c1ccc(C(=O)NCc2ccccc2OC(F)(F)F)c(C)c1 (stereo not drawn) [A30]
no or little effect: all assays above

CCc1cc(C(F)(C(F)(F)F)C(F)(F)C(F)(F)F)cc(C)c1NC(=O)c1ccc(C(=O)Nc2ccccc2-c2cc3ccccc3[nH]2)c(C)c1 (stereo not drawn) [A51]
no or little effect: all assays above

CCc1cc(C(F)(C(F)(F)F)C(F)(F)C(F)(F)F)cc(C)c1NC(=O)c1ccc(C(=O)Nc2ccccc2N2CCOCC2)c(C)c1 (stereo not drawn) [A52]
no or little effect: all assays above

CCc1cc(C(F)(C(F)(F)F)C(F)(F)C(F)(F)F)cc(C)c1NC(=O)c1ccc(C(=O)Nc2cc(C)nn2C)c(C)c1 (stereo not drawn) [A54]
no or little effect: all assays above

CCc1cc(C(F)(C(F)(F)F)C(F)(F)C(F)(F)F)cc(C)c1NC(=O)c1ccc(C(=O)Nc2n[nH]c(SC)n2)c(C)c1 (stereo not drawn) [A56]
no or little effect: all assays above

CCc1cc(C(F)(C(F)(F)F)C(F)(F)C(F)(F)F)cc(C)c1NC(=O)c1ccc(C(=O)Nc2ncccc2C)c(C)c1 (stereo not drawn) [A57]
no or little effect: all assays above
